Assay results: patent US8058437B2, “(Pyrroloquinoxalinyl) pyrazinecarbohydrazide-oxalic acid co-crystal for treatment of cancer and other diseases” (Novelix Pharmaceuticals, Inc., priority 2008, dated 2011)
“And” between values parts separate entries of the source, which are not always exact repeats. Equal entries are not always repeated. Where two headings read alike, the source gives them in different places.

Columns and labels:
[1] = Salt formation experiments / physical characteristics of solid forms; format: physicochemical; settings: free base prepared from NVX-144.HCl; salt formation with acids
Protocol: Thus, a series of experiments was conducted to assess the preparation of NVX-144 salts of acids other than hydrochloric acid as possible novel compounds better suited to pharmaceutical preparations. […] As expected, NVX-144 base readily formed salts with strong organic acids.
Although oxalic acid co-crystals are rare, Trask et al. have reported a co-crystal of caffeine with oxalic acid (see Trask et al., “Pharmaceutical Cocrystallization: Engineering a Remedy for Caffeine Hydration,” Crystal Growth & Design, 5, 1013-21 (2005)).
Thus NVX-144 would not be expected to form a salt with oxalic acid, a relatively strong dicarboxylic acid.

[2] = Pharmacokinetic experiments in rats (IV, oral suspension, oral solution); format: in vivo; settings: rat; for concentration at 0.5 h / concentration at 1 h / concentration at 4 h / concentration at 8 h: oral; for bioavailability: adjusted for dose
Protocol: The oral suspension formulation was prepared by suspending the test article in 5% PEG-200/95% of a 0.5% solution of methylcellulose. The concentration of the test article was such that a dosing volume of 10 mL/kg delivered the intended dose level. The oral solution formulations of NVX-144 and NVX-412 were prepared by dissolving the test article in 10% by volume dimethyl acetamide, followed by 60% by volume PEG-400, and then adding slowly a solution of 30% Captisol® in 50 mM lactic acid to provide the remaining 30% of volume. The concentration of the test article was such that a dosing volume of 10 mL/kg delivered the intended dose level. The IV formulation of NVX-412 was prepared by dissolving the test article in 10% by volume dimethyl acetamide, followed by 10% by volume PEG-400, and then adding slowly a solution of 10% Captisol® in 50 mM lactic acid to provide the remaining 80% of volume. The concentration of the test articles was such that a dosing volume of 2.5 mL/kg delivered the intended dose level. The doses administered were based on the body weight of each animal taken shortly before dosing. The formulations were used immediately after preparation.
A total of 15 rats were assigned to the study. Five groups of three male rats each comprised the study. Each group was treated once by oral gavage or intravenous injection via the tail vein as specified in Table 3 below.
The animals were fasted overnight prior to dosing and the feed returned approximately 2 hours post-dosing. The dose for each animal was based on the most recent body weight. Oral doses were administered by gavage. Animals received 10 mL/kg per single oral dose. Intravenous doses were administered by tail vein injection. The dose for each animal was based on the most recent body weight. Animals were dosed at 2.5 mL/kg per single intravenous dose.
Blood was collected from the animals in Groups 1 through 5 for pharmacokinetic analysis. Approximately 0.3 mL of blood was collected in potassium EDTA tubes via the orbital plexus at four time points (30 minutes, 1 hour, 4 hours, and 8 hours post-dose) from each rat treated by the oral route, and the blood samples were processed to prepare plasma. Blood was collected at four time points (5 minutes, 30 minutes, 1 hour, and 2 hours post-dose) from each rat treated by the intravenous route, and the blood samples were processed to prepare plasma. Animals were terminated (without necropsy) following their final sample collection.
The whole blood samples were centrifuged (˜1500×g) for a minimum of 10 minutes in a refrigerated centrifuge (set at ˜5° C.). Plasma was prepared and transferred within 30 minutes of blood collection/centrifugation to appropriately labeled tubes. The tubes were then frozen and stored in the dark at ≦−70° C. until analysis. The plasma samples were analyzed by LC-MS/MS to determine the plasma concentrations of NVX-144 and NVX-412. Pharmacokinetic analysis of the plasma concentration data was conducted using non-compartmental analysis with WinNonlin Version 4.1.

[3] = male, plasma, po, 20 mg/kg, Group 2, PO-Suspension 20 mg/kg, Mean N=3
[4] = male, plasma, po, 20 mg/kg, Group 2, PO-Suspension 20 mg/kg, individual animals
[5] = male, plasma, po, 20 mg/kg, Group 4, PO-Solution 20 mg/kg, Mean N=3
[6] = male, plasma, po, 20 mg/kg, Group 4, PO-Solution 20 mg/kg, individual animals
[7] = Group 2, PO-Suspension 20 mg/kg, Mean N=3, listed as NVX-144 Free Base
[8] = Group 2, PO-Suspension 20 mg/kg, individual animals, listed as NVX-144 Free Base
[9] = Group 4, PO-Solution 20 mg/kg, Mean N=3, listed as NVX-144 Free base
[10] = Group 4, PO-Solution 20 mg/kg, individual animals, listed as NVX-144 Free base

O=C(NNc1nc2cc(F)ccc2n2cccc12)c1cnccn1 [NVX-144, N′-(7-fluoropyrrolo[1,2a]quinoxalin-4-yl)pyrazine-2-carbohydrazide, reference compound]
basicity [1]: very weak base
concentration at 0.5 h ([2]; male, plasma, 20 mg/kg, Group 2, PO-Suspension 20 mg/kg, 0.5 hr, Mean): 479 ng/mL
concentration at 0.5 h ([2]; male, plasma, 20 mg/kg, Group 2, PO-Suspension 20 mg/kg, 0.5 hr, individual animals): 436 ng/mL
concentration at 1 h ([2]; male, plasma, 20 mg/kg, Group 2, PO-Suspension 20 mg/kg, 1 hr, Mean): 427 ng/mL
concentration at 4 h ([2]; male, plasma, 20 mg/kg, Group 2, PO-Suspension 20 mg/kg, 4 hr, Mean): 227 ng/mL
concentration at 4 h ([2]; male, plasma, 20 mg/kg, Group 2, PO-Suspension 20 mg/kg, 4 hr, individual animals): 270 ng/mL
concentration at 8 h ([2]; male, plasma, 20 mg/kg, Group 2, PO-Suspension 20 mg/kg, 8 hr, Mean): 10.9 ng/mL
concentration at 0.5 h ([2]; male, plasma, 20 mg/kg, Group 4, PO-Solution 20 mg/kg, 0.5 hr, Mean): 709 ng/mL
concentration at 0.5 h ([2]; male, plasma, 20 mg/kg, Group 4, PO-Solution 20 mg/kg, 0.5 hr, individual animals): 691 ng/mL
concentration at 1 h ([2]; male, plasma, 20 mg/kg, Group 4, PO-Solution 20 mg/kg, 1 hr, Mean): 643 ng/mL
concentration at 1 h ([2]; male, plasma, 20 mg/kg, Group 4, PO-Solution 20 mg/kg, 1 hr, individual animals): 570 ng/mL
concentration at 4 h ([2]; male, plasma, 20 mg/kg, Group 4, PO-Solution 20 mg/kg, 4 hr, Mean): 225 ng/mL
concentration at 4 h ([2]; male, plasma, 20 mg/kg, Group 4, PO-Solution 20 mg/kg, 4 hr, individual animals): 289 ng/mL
concentration at 8 h ([2]; male, plasma, 20 mg/kg, Group 4, PO-Solution 20 mg/kg, 8 hr, Mean): 31.5 ng/mL
AUC [2, 3]: 1800 ng·h/mL
AUC(0-inf) [2, 3]: 1830 ng·h/mL
Cmax ([2]; male, plasma, po, 20 mg/kg, Group 2, PO-Suspension 20 mg/kg, Mean N=3, read-out: Cmax): 487 ng/mL
half-life ([2]; male, plasma, po, 20 mg/kg, Group 2, PO-Suspension 20 mg/kg, Mean N=3, read-out: T ½ (converted)): 1.4 h
Tmax ([2]; male, plasma, po, 20 mg/kg, Group 2, PO-Suspension 20 mg/kg, Mean N=3, read-out: Tmax): 0.67 h
bioavailability ([2]; male, plasma, po, 20 mg/kg, Group 2, PO-Suspension 20 mg/kg, Mean N=3, versus mean IV AUCINF, read-out: Bioavailability): 34.7%
AUC [2, 4]: 1690 ng·h/mL
AUC(0-inf) [2, 4]: 1720 ng·h/mL
Cmax ([2]; male, plasma, po, 20 mg/kg, Group 2, PO-Suspension 20 mg/kg, individual animals, read-out: Cmax): 436 ng/mL
half-life ([2]; male, plasma, po, 20 mg/kg, Group 2, PO-Suspension 20 mg/kg, individual animals, read-out: T ½ (converted)): 1.66 h
Tmax ([2]; male, plasma, po, 20 mg/kg, Group 2, PO-Suspension 20 mg/kg, individual animals, read-out: Tmax): 0.5 to 1 h
bioavailability ([2]; male, plasma, po, 20 mg/kg, Group 2, PO-Suspension 20 mg/kg, individual animals, versus mean IV AUCINF, read-out: Bioavailability): 32.8%
AUC [2, 5]: 2330 ng·h/mL
AUC(0-inf) [2, 5]: 2520 ng·h/mL
Cmax ([2]; male, plasma, po, 20 mg/kg, Group 4, PO-Solution 20 mg/kg, Mean N=3, read-out: Cmax): 714 ng/mL
half-life ([2]; male, plasma, po, 20 mg/kg, Group 4, PO-Solution 20 mg/kg, Mean N=3, read-out: T ½ (converted)): 1.6 h
Tmax ([2]; male, plasma, po, 20 mg/kg, Group 4, PO-Solution 20 mg/kg, Mean N=3, read-out: Tmax): 0.67 h
bioavailability ([2]; male, plasma, po, 20 mg/kg, Group 4, PO-Solution 20 mg/kg, Mean N=3, versus mean IV AUCINF, read-out: Bioavailability): 46.1%
AUC [2, 6]: 2500 ng·h/mL
AUC(0-inf) [2, 6]: 2760 ng·h/mL
Cmax ([2]; male, plasma, po, 20 mg/kg, Group 4, PO-Solution 20 mg/kg, individual animals, read-out: Cmax): 691 ng/mL
Tmax ([2]; male, plasma, po, 20 mg/kg, Group 4, PO-Solution 20 mg/kg, individual animals, read-out: Tmax): 0.5 to 1 h
bioavailability ([2]; male, plasma, po, 20 mg/kg, Group 4, PO-Solution 20 mg/kg, individual animals, versus mean IV AUCINF, read-out: Bioavailability): 52.6%
plasma concentration ([2]; Group 2, PO-Suspension 20 mg/kg, 0.5 hr, individual animals, listed as NVX-144 Free Base): 428.07 ng/mL and 571.69 ng/mL
plasma concentration ([2]; Group 2, PO-Suspension 20 mg/kg, 1 hr, individual animals, listed as NVX-144 Free Base): 282.56 ng/mL and 401.49 ng/mL and 597.75 ng/mL
plasma concentration ([2]; Group 2, PO-Suspension 20 mg/kg, 4 hr, individual animals, listed as NVX-144 Free Base): 234.64 ng/mL and 175.82 ng/mL
plasma concentration ([2]; Group 2, PO-Suspension 20 mg/kg, 8 hr, individual animals, listed as NVX-144 Free Base): 14.92 ng/mL and 12.33 ng/mL and 5.37 ng/mL
AUC % Extrap ([2]; Group 2, PO-Suspension 20 mg/kg, Mean N=3): 1.32%
AUCINF [2, 7]: 1826.45 ng·h/mL
Cmax [2, 7]: 487.28 ng/mL
T ½ [2, 7]: 1.39 h
AUC % Extrap [2, 8]: 2.08% and 1.48% and 0.4%
AUCINF [2, 8]: 1789.00 ng·h/mL and 1965.88 ng·h/mL
AUCall [2, 8]: 1762.55 ng·h/mL and 1958.03 ng·h/mL
Cmax [2, 8]: 428.07 ng/mL and 597.75 ng/mL
T ½ [2, 8]: 1.49 h and 1.01 h
Tmax [2, 8]: 0.5 h and 1.0 h
bioavailability ([2]; Group 2, PO-Suspension 20 mg/kg, individual animals, versus mean IV AUCINF, listed as NVX-144 Free Base): 34.0% and 37.4%
plasma concentration ([2]; Group 4, PO-Solution 20 mg/kg, 0.5 hr, individual animals, listed as NVX-144 Free Base): 610.62 ng/mL and 824.32 ng/mL
plasma concentration ([2]; Group 4, PO-Solution 20 mg/kg, 1 hr, individual animals, listed as NVX-144 Free Base): 626.73 ng/mL and 731.54 ng/mL
plasma concentration ([2]; Group 4, PO-Solution 20 mg/kg, 4 hr, individual animals, listed as NVX-144 Free Base): 163.62 ng/mL and 221.82 ng/mL
plasma concentration ([2]; Group 4, PO-Solution 20 mg/kg, 8 hr, individual animals, listed as NVX-144 Free Base): 75.29 ng/mL and 5.57 ng/mL and 13.76 ng/mL
AUC % Extrap ([2]; Group 4, PO-Solution 20 mg/kg, Mean N=3): 3.61%
AUCINF [2, 9]: 2426.28 ng·h/mL
Cmax [2, 9]: 713.93 ng/mL
T ½ [2, 9]: 1.56 h
AUC % Extrap [2, 10]: 9.41% and 0.41% and 1.00%
AUCINF [2, 10]: 1994.04 ng·h/mL and 2521.47 ng·h/mL
AUCall [2, 10]: 1985.89 ng·h/mL and 2496.24 ng·h/mL
Cmax [2, 10]: 626.73 ng/mL and 824.32 ng/mL
T ½ [2, 10]: 2.39 h and 1.01 h and 1.27 h
Tmax [2, 10]: 0.5 h and 1.0 h
bioavailability ([2]; Group 4, PO-Solution 20 mg/kg, individual animals, versus mean IV AUCINF, listed as NVX-144 Free base): 37.9% and 48.0%
oral absorption ([2]; administered as a solution or suspension): moderate
